According to US11800867B2, “Methods of repelling biting arthropods, reducing pathogen spread and treating arthropod infestation” (priority 2016, dated 2023):
Values joined by “and” are separate entries in the source; they are usually repeats but may differ in a detail not shown here. Equal values may be shown once.

Experiments:
Assay type in all cases: in vivo
[1] = tested on: deer ticks (Ixodes scapularis); test: Filter paper choice test of repelling action (Example 6)
Method: (§1) An in vitro laboratory trial was required to assess the repelling action of nootkatone applied to filter paper against cat fleas (Ctenocephalides felis), deer ticks (Ixodes scapularis), bed bugs (Cimex lectularius), and termites (Reticulitermes flavipes) in a choice test design.
(§2) The sponsor provided a sample of nootkatone (98%), which was diluted in ethanol to a 0.5% concentration. The treatment was applied to filter paper at a rate of 1 mL for a 9 cm filter paper disc, and a rate of 1.9 mL for a 15 cm filter paper disc. A negative control group, consisting of untreated filter paper, was also assessed for comparison purposes.
Deer ticks: Treated and untreated filter papers were cut in half and fitted into the bottom of a 9 cm petri dish. Treated replicates received one half treated and one half untreated filter paper; negative control replicates received untreated filter paper only. The petri dish arenas were then placed on their sides, with the control halves positioned at the lower half and the treated half at the upper half.
Deer ticks: Ticks were introduced, one at a time, to the bottom half of the control (untreated) arena, and monitored to see how long it took them to get to the upper “treated” side of the arena. Ticks were allowed up to three minutes to cross into the upper area of each arena. […] Once a tick had crossed into the upper side of the control arena, it was gently picked up with forceps and placed in the bottom half of the treated arena, and the procedure repeated. Ticks were considered “not repelled” if they crossed onto the treated side of the treated arena within three minutes.
The number of repelled ticks for each replicate was added together, and the average and standard error were calculated across all five replicates. The numbers were divided by the total number of ticks per replicate to obtain the percent repellency.

[2] = tested on: bed bugs (Cimex lectularius); test: as above
Method: as §1, §2
Bed bugs: Petri dishes (9 cm) were modified by cutting a circular hole in the bottom of a clean petri plate. Fine mesh nylon cloth was fastened to the bottom using adhesive, covering the hole. The petri plate was then inverted, with the screened bottom serving as the top. Treated and untreated filter papers were cut in half and fitted into the new bottom of the test containers. Treated replicates received one half treated and one half untreated filter paper; negative control replicates received only untreated filter paper.
Bed bugs: Bed bugs were placed in the center of each test container and covered with the fine-mesh lid. The containers were kept in darkness at ambient laboratory conditions for 24 hours. At the end of the exposure period, the distribution (on or under each filter paper) of bed bugs was recorded.
The number of insects in each location was converted to a percentage, for which the average and standard error were calculated across all five replicates.
Percent repellency was calculated with the following formula: % repellency=(1−((t/T)/(c/C)))*100 • Where t=number of insects on treated side of treated arena • T=total number of insects in treated arena • c=average number of insects on right side of untreated arenas • C=average total number of insects in untreated arenas

[3] = tested on: aphids (Schizaphis gramium); test: Treated filter paper knockdown (KD) and mortality trial (Example 4); settings: Nootkatone 1% in ethanol on filter paper
Method: (§3) A laboratory trial was conducted to assess the efficacy of nootkatone applied to filter paper against aphids (Schizaphis gramium), dust mites (Dermatophagoides sp.), termites (Reticulitermes flavipes), deer ticks (Ixodes scapularis), biting midges (Culicoides sp.), fire ants (Solenopsis invicta), and mosquitoes (Aedes aegypti and Culex), in terms of knockdown (KD) and mortality. One concentration (1% in ethanol) of nootkatone was assessed for most species, but three concentrations (0.25%, 0.5%, and 1% in ethanol) were assessed for mosquitoes. A negative control group, consisting of filter paper treated with ethanol, was also assessed for comparison purposes for each species.
(§4) Test systems were introduced to treated filter paper, allowed to dry, and then introduced into treatment chamber, where treated arthropods were monitored at intervals up to 72 hours. If 100% mortality was obtained prior to 72 hours, the individual study was halted.
(§5) Readings were discontinued if treated mortality reaches […], or control mortality exceeds 20%.

[4] = tested on: mosquitoes (Aedes aegypti and Culex); test: Treated filter paper knockdown (KD) and mortality trial (Example 4), statements on both mosquito species
Method: as §3, §4
Midges and mosquitoes—5 replicates of 10 insects per treatment were tested. Inverted 10 ounce (295 ml) clear plastic cups with a 0.5 inch (1.27 cm) hole burned into the center of the bottom, and with the sides coated with Fluon® was used at the treatment containers. The bottoms of the containers consisted of Petri dish lids 3.54 inches (9.0 cm) in diameter lined with a treated filter paper circle the same diameter. The cup was placed over the filter paper in the lid and both were secured in place using 2 rubber bands. The insects were introduced through the hole in the cup, and a plastic disc was placed over the opening to prevent escapes.
as §5

[5] = 0.5% nootkatone in ethanol on filter paper
[6] = 0.5% nootkatone in ethanol, 10 ticks per replicate, three minutes, Replicates 1-5
[7] = 0.5% nootkatone in ethanol, 24 Hours post introduction, Replicates 1-5

## C=C(C)[C@@H]1CCC2=CC(=O)C[C@@H](C)[C@]2(C)C1 [Nootkatone, nootkatone]
[1]; [5]
  Repellency (conclusion in words): highly repellent
[1]; [6]
  Raw data: number of ticks Not repelled, per replicate: 0 (3×) and 1 (2×)
  Raw data: number of ticks Repelled, per replicate: 9 (2×) and 10 (3×)
[1]; nootkatone (98%) 0.5% in ethanol on filter paper, treated upper half, up to three minutes to cross
  Calculated percent repellency (average ± SE): 96.0 ± 2.4%
[2]; [5]
  Repellency (conclusion in words): highly repellent
[2]; [7]
  Raw data: number of bed bugs on Treated half of treated arena, per replicate: 0 (4×) and 1
  Raw data: number of bed bugs on Untreated half of treated arena, per replicate: 10 (4×) and 9
[2]; nootkatone (98%) 0.5% in ethanol on filter paper, half treated, half untreated arena, 24 hours
  Calculated percent repellency (average ± SE): 93.9 ± 6.1%
[3]
  Time required for greater than 90% killing: 30 min
[3]; 30 minutes post introduction
  Means Affected: 100.0%
  Means Dead: 100% and 94.0%
  Means KD: 6.0%
[4]; Nootkatone 0.25% in ethanol on filter paper, the lowest tested concentration
  Mortality in mosquitoes: less than 80%
[4]; Nootkatone 1% in ethanol on filter paper
  Time required for greater than 90% killing: 24 h
[4]; Nootkatone 1% in ethanol on filter paper, by 8 hours post treatment
  Affected (knockdown+mortality) mosquitoes in both species: at least 80%
[4]; Nootkatone at 1% concentration in ethanol on filter paper, both mosquito species
  Mortality in mosquitoes during the experimental duration: 94-100%
[4]; nootkatone 0.5% in ethanol on filter paper, by 72 hours post treatment
  Mortality in both mosquito species: 82-95%
